Measurements taken from PubChem BioAssay (NCI).
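Growth conditions: 96-well plates. Treatment: test compound, 48 hours, 5 concentrations. Analysis: linear interpolation between bracketing concentrations; unreached endpoints set to highest concentration. The concentration for 50% growth inhibition is given as GI50. TGI is the concentration that stops growth completely.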

Tests used:
Assay in all cases: inhibition of tumour cell growth, NCI panel, 48 h
OVCAR-3 ovarian = system: OVCAR-3 ovarian
SF-539 CNS = system: SF-539 CNS
SNB-19 CNS = system: SNB-19 CNS
SN12C renal = system: SN12C renal
CCRF-CEM leukemia = system: CCRF-CEM leukemia
A549 NSCLC = system: A549 NSCLC
HCT-116 colon = system: HCT-116 colon
OVCAR-4 ovarian = system: OVCAR-4 ovarian
A498 renal = system: A498 renal
M14 melanoma = system: M14 melanoma
DU-145 prostate = system: DU-145 prostate
RXF 393 renal = system: RXF 393 renal
NCI/ADR-RES ovarian = system: NCI/ADR-RES ovarian

Row | SMILES | TGI (OVCAR-3 ovarian) [µM] | TGI (SF-539 CNS) [µM] | TGI (SNB-19 CNS) [µM] | TGI (SN12C renal) [µM] | TGI (CCRF-CEM leukemia) [µM] | TGI (A549 NSCLC) [µM] | TGI (HCT-116 colon) [µM] | TGI (OVCAR-4 ovarian) [µM] | TGI (A498 renal) [µM] | TGI (M14 melanoma) [µM] | TGI (DU-145 prostate) [µM] | TGI (RXF 393 renal) [µM] | TGI (NCI/ADR-RES ovarian) [µM] | GI50 (CCRF-CEM leukemia) [µM]
1 | COc1ccc2c(OC)c3ccoc3nc2c1O | > 100 | > 100 | > 100 | > 100 | > 100 | > 100 | > 100 | > 100 | > 100 | > 100 | – | – | – | –
2 | CC1CCCc2c(-c3ccc(Cl)cc3)nc(N)c(C#N)c21 (stereo not given) | > 100 | 92.3 | > 100 | > 100 | > 100 | – | > 100 | – | 89 | 86 | > 100 | 93.2 | 71.3 | –
3 | Cc1ccc(-c2c(C#N)c(-c3ccc(N(C)C)cc3)c(C#N)c(=O)n2NS(=O)(=O)c2ccccc2)cc1 | – | 83.4 | > 100 | > 100 | 96.3 | > 100 | > 100 | > 100 | > 100 | > 100 | – | 68.1 | > 100 | –
4 | O=C1/C(=C/c2cccc([N+](=O)[O-])c2)COc2ccccc21 | 13.2 | – | 9.07 | – | – | > 100 | 3.16 | 6.28 | > 84.4 | 3.38 | – | 12.8 | – | –
5 | Fc1ccc(C(OCCN2CCC3CCC(C2)N3CCCc2ccccc2)c2ccc(F)cc2)cc1 (stereo not given) | 14.8 | 2.82 | 22.3 | 12.7 | 11.3 | 19.4 | 10.6 | 22.3 | 11.8 | 4.76 | 22.8 | – | 13.7 | –
6 | C1=CCN(c2ccccc2)CC1 | 61.2 | > 100 | > 100 | 87 | > 100 | > 100 | > 100 | – | > 100 | 44.8 | – | 35.7 | – | –
7 | CCN(CC)CCCCC1CCN(CC(=O)N2c3ccccc3NC(=O)c3ccccc32)CC1 | > 100 | > 100 | > 100 | > 100 | > 100 | > 100 | > 100 | > 100 | > 100 | 39.7 | – | – | – | –
8 | Nc1ccc(N=Nc2ccc(/C=C/c3ccc(N=Nc4ccc(N)c5ccc(S(=O)(=O)O)cc45)cc3S(=O)(=O)O)c(S(=O)(=O)O)c2)c2cc(S(=O)(=O)O)ccc12 | > 100 | > 100 | > 100 | > 100 | > 100 | > 100 | > 100 | > 100 | > 100 | – | – | > 100 | > 100 | –
9 | CC(=O)OC1[C@H]2c3cc4c(cc3CN3CCC(C[C@@H]1OC(C)=O)C23)OCO4 (stereo not given in full) | > 75 | > 75 | > 75 | > 75 | > 75 | > 75 | > 75 | – | – | > 75 | – | > 75 | – | –
10 | O=C1/C(=C/c2cccc([N+](=O)[O-])c2)CCCc2ccccc21 | 26.5 | 28.6 | 28.5 | 33.1 | 10.5 | 48 | 17.2 | 33.4 | – | 26.7 | 28.2 | – | 23.8 | –
11 | N#Cc1c(-c2ccccc2)c(C#N)c(=O)n(NS(=O)(=O)c2ccccc2)c1O | – | > 100 | > 100 | > 100 | > 100 | > 100 | > 100 | > 100 | > 100 | > 100 | – | > 100 | > 100 | –
12 | O=c1c2cc(I)ccc2nc(-c2cccs2)n1Nc1ccccc1 | 6.52 | > 100 | 76.6 | > 100 | > 100 | > 100 | > 100 | > 100 | – | > 100 | – | > 100 | > 100 | 50.7
13 | CC(=O)NNC=N/C(C#N)=C(\N)C#N | > 100 | > 100 | > 100 | > 100 | > 100 | > 100 | > 100 | > 100 | > 100 | > 100 | > 100 | – | > 100 | –
14 | CC1=NC(=Cc2ccc(Cl)cc2)C(=O)N1n1c(-c2ccccc2)nc2ccccc2c1=O | – | > 100 | > 100 | > 100 | > 100 | > 100 | > 100 | – | 63.4 | > 100 | > 100 | – | – | –
15 | Cc1ccc(S(=O)(=O)N(c2ccccc2F)C2CCCCC2O)cc1 (stereo not given) | 66.9 | > 100 | > 100 | > 100 | > 100 | > 100 | > 100 | > 100 | > 100 | > 100 | 96.7 | – | > 100 | –
16 | Oc1ccccc1C=Nc1ccc(Oc2ccc(Cl)cc2)c(Cl)c1 | 38.5 | 58.7 | 49.6 | 41.4 | 54.3 | 58.7 | 40.1 | 66.2 | 33.7 | 46 | > 100 | – | 47.5 | –
17 | COc1ccc(CCN2CCC(C#N)(c3ccc(OC)c(OC)c3)CC2)cc1OC | > 100 | > 100 | > 100 | > 100 | > 100 | > 100 | > 100 | > 100 | – | > 100 | – | > 100 | – | –
18 | N#C/C(=C\c1ccc(Cl)cc1)c1nc2ccccc2c(=O)[nH]1 | – | > 100 | > 100 | > 100 | > 100 | > 100 | > 100 | > 100 | – | > 100 | > 100 | > 100 | > 100 | –
19 | O=C(Cc1ccccc1)N/N=C(/CCN1CCCC1)CC(c1ccccc1)c1c(O)c2ccccc2oc1=O (stereo not given) | > 100 | > 100 | > 100 | – | > 100 | > 100 | > 100 | > 100 | > 100 | > 100 | > 100 | – | > 100 | –
20 | CC1C2CC(C(C3C(=O)C4CC3C(C)(C)C4C)C2=O)C1(C)C (stereo not given) | > 100 | > 100 | > 100 | > 100 | > 100 | > 100 | > 100 | > 100 | > 100 | > 100 | > 100 | > 100 | – | –
